Test results reported in ChEMBL document CHEMBL2203176, “Structure-based bioisosterism design, synthesis and biological evaluation of novel 1,2,4-triazin-6-ylthioacetamides as potent HIV-1 NNRTIs” (Bioorg Med Chem Lett, 2012).

Legend:
[1] = Selectivity index, ratio of CC50 for human MT4 cells to EC50 for HIV1 RES056 harboring reverse transcriptase K103N/Y181C mutant; type: toxicity, cell-based; conditions: read-out: Ratio CC50/EC50
[2] = tested on: Human immunodeficiency virus 2; test: Antiviral activity against HIV2 ROD infected in human MT4 cells assessed as inhibition of virus-induced cytopathicity by MTT assay; type: functional, organism-based; conditions: Human immunodeficiency virus 2, ISOLATE ROD
[3] = tested on: Human immunodeficiency virus 1; test: Antiviral activity against HIV1 RES056 harboring reverse transcriptase K103N/Y181C mutant infected in human MT4 cells assessed as inhibition of virus-induced cytopathicity by MTT assay; type: functional, organism-based; conditions: Human immunodeficiency virus 1, RES056, MT4
[4] = Cytotoxicity against human MT4 cells by MTT assay; type: cell-based
[5] = Selectivity index, ratio of CC50 for human MT4 cells to EC50 for HIV2 ROD; type: toxicity, cell-based; conditions: read-out: Ratio CC50/EC50
[6] = tested on: Human immunodeficiency virus 1; test: Antiviral activity against HIV1 3B infected in human MT4 cells assessed as inhibition of virus-induced cytopathicity by MTT assay; type: functional, organism-based; conditions: Human immunodeficiency virus 1, 3B
[7] = Selectivity index, ratio of CC50 for human MT4 cells to EC50 for HIV1 3B; type: toxicity, cell-based; conditions: read-out: Ratio CC50/EC50

SMILES	selectivity ratio [1]	EC50 [2] [µM]	EC50 [3] [µM]	CC50 [4] [µM]	selectivity ratio [5]	EC50 [6] [µM]	selectivity ratio [7]
O=C(CSc1nncnc1-c1cccc2ccccc12)N1CCc2ccccc2C1	< 1	> 13	> 13	13	< 1	0.751	17
O=C(CSc1nncnc1-c1cccc2ccccc12)Nc1ccccc1F	< 1	> 65	> 65	65	< 1	0.359	184
COC(=O)c1ccc(NC(=O)CSc2nncnc2-c2cccc3ccccc23)c(Br)c1	7	> 173	25	173	< 1	0.069	2560
O=C(CSc1nncnc1-c1ccccc1Cl)Nc1cccnc1Cl	7	> 167	23	167	< 1	0.074	2240
O=C(CSc1nncnc1-c1ccccc1Cl)N1CCc2ccccc2C1	< 1	> 38	≥ 43	≥ 38	> 1	0.731	≥ 52
O=C1Nc2ccc(Cl)cc2[C@@](C#CC2CC2)(C(F)(F)F)O1 [EFAVIRENZ]	–	–	–	> 6.3	–	–	–
Cc1ccc2sc(NC(=O)CSc3nncnc3-c3ccccc3Cl)nc2c1	–	> 32	–	137	< 1	> 32	< 1
Cc1ccccc1NC(=O)CSc1nncnc1-c1cccc2ccccc12	< 1	> 158	> 158	158	< 1	0.828	194
Cc1ccc(NC(=O)CSc2nncnc2-c2cccc3ccccc23)c(Br)c1	4	> 166	46	166	< 1	0.195	852
O=C(CSc1nncnc1-c1cccc2ccccc12)Nc1ccccc1	< 1	> 154	> 154	154	< 1	1.53	101
CCOC(=O)c1ccc(NC(=O)CSc2nncnc2-c2cccc3ccccc23)c(Cl)c1	< 1	> 150	> 150	150	< 1	0.205	729
Nc1ccn([C@H]2CC[C@@H](CO)O2)c(=O)n1 [ZALCITABINE]	–	1.3	–	> 95	> 74	1	68
CC(=O)c1ccc(NC(=O)CSc2nncnc2-c2cccc3ccccc23)c(Br)c1	31	> 133	4.3	133	< 1	0.051	2680
Cc1cnc(NC(=O)CSc2nncnc2-c2ccccc2Cl)c(Br)c1	–	> 144	–	144	< 1	> 31	< 1
O=C(CSc1nncnc1-c1cccc2ccccc12)Nc1ccccc1Br	≤ 2	> 87	≥ 43	87	< 1	0.173	503
Cc1ccnc2c1NC(=O)c1cccnc1N2C1CC1 [NEVIRAPINE]	–	–	11	> 15	–	–	–
Cc1ccc(NC(=O)CSc2nncnc2-c2ccccc2Cl)c(Br)c1	≤ 1	> 45	≥ 42	45	< 1	0.178	253
COC(=O)c1ccc(NC(=O)CSc2nncnc2-c2ccccc2Cl)c(Br)c1	< 1	> 59	> 59	59	< 1	0.19	311
CC(=O)c1ccc(NC(=O)CSc2nncnc2-c2ccccc2Cl)c(Br)c1	< 1	> 35	> 34	34	< 1	0.086	404
O=C(CSc1nncnc1-c1cccc2ccccc12)Nc1ccc([N+](=O)[O-])cc1Cl	–	> 150	–	150	< 1	> 150	< 1

SMILES	selectivity ratio [1]	EC50 [2] [µM]	EC50 [3] [µM]	CC50 [4] [µM]	selectivity ratio [5]	EC50 [6] [µM]	selectivity ratio [7]
O=C(CSc1nncnc1-c1cccc2ccccc12)Nc1cccnc1Cl	6	> 44	7	44	< 1	0.059	751
O=C(CSc1nncnc1-c1cccc2ccccc12)Nc1ccccc1Cl	< 1	> 63	> 63	63	< 1	0.135	470
O=C(CSc1nncnc1-c1ccccc1Cl)Nc1ccccn1	< 1	> 123	> 123	172	< 1	3.3	51
O=C(CSc1nncnc1-c1ccccc1Cl)Nc1ccccc1Br	≤ 1	> 73	≥ 55	73	< 1	0.092	792
O=C(CSc1nncnc1-c1ccccc1Cl)Nc1ccc(Cl)cc1Cl	< 1	> 51	> 51	51	< 1	0.258	190
O=C(CSc1nncnc1-c1ccccc1Cl)Nc1ccccc1	< 1	> 127	> 127	127	< 1	0.42	296
O=C(CSc1nncnc1-c1ccccc1Cl)Nc1ccccc1F	< 1	> 98	> 98	98	< 1	0.21	471
O=C(CSc1nncnc1-c1ccccc1Cl)c1ccc(Cl)c(Cl)c1	–	> 33	> 33	33	< 1	6.2	5
O=C(CSc1nncnc1-c1ccccc1Cl)Nc1ccccc1Cl	≤ 2	> 90	≥ 55	–	< 1	–	–
O=C(CSc1nncnc1-c1ccccc1Cl)N1CCCc2ccccc21	–	> 35	–	35	< 1	> 35	< 1
O=C(CSc1nncnc1-c1cccc2ccccc12)Nc1ccccc1[N+](=O)[O-]	25	> 142	5.6	142	< 1	0.043	3260
COC(=O)c1sccc1NC(=O)CSc1nncnc1-c1ccccc1Cl	< 1	> 105	> 105	105	< 1	2.9	35
CC(C)Nc1cccnc1N1CCN(C(=O)c2cc3cc(NS(C)(=O)=O)ccc3[nH]2)CC1 [DELAVIRDINE]	< 1	–	> 36	> 36	–	0.032	–
O=C(CSc1nncnc1-c1ccccc1Cl)c1ccc(Br)cc1Br	–	> 28	–	28	< 1	> 28	< 1
Cc1cn([C@H]2C[C@H](N=[N+]=[N-])[C@@H](CO)O2)c(=O)[nH]c1=O [ZIDOVUDINE]	29600	0.004	0.009	–	56900	–	8300
Cc1ccc(NC(=O)CSc2nncnc2-c2cccc3ccccc23)c([N+](=O)[O-])c1	28	> 147	5.2	147	< 1	0.046	3170
Cc1ccccc1NC(=O)CSc1nncnc1-c1ccccc1Cl	< 1	> 142	> 142	142	< 1	0.297	465
CCOC(=O)c1ccc(NC(=O)CSc2nncnc2-c2cccc3ccccc23)c(Br)c1	< 1	> 105	> 105	105	< 1	0.21	524
CCOC(=O)c1ccc(NC(=O)CSc2nncnc2-c2ccccc2Cl)c(Br)c1	< 1	> 69	> 69	69	< 1	0.236	302
O=C(CSc1nncnc1-c1cccc2ccccc12)Nc1ccc(Cl)cc1Cl	–	> 254	–	254	< 1	> 254	< 1
